Results published in PMC5587797 (Nucleic Acids Research, 2017).

Key:
hTRMT10A [1] = target: hTRMT10A (Homo sapiens, UniProt Q8TBZ6); assay: biochemical
hTRMT10A [2] = target: hTRMT10A (Homo sapiens, UniProt Q8TBZ6, D210N); assay: biochemical
hTRMT10A (Homo sapiens, UniProt Q8TBZ6, D210N), sequence (Q8TBZ6 whole entry D210N): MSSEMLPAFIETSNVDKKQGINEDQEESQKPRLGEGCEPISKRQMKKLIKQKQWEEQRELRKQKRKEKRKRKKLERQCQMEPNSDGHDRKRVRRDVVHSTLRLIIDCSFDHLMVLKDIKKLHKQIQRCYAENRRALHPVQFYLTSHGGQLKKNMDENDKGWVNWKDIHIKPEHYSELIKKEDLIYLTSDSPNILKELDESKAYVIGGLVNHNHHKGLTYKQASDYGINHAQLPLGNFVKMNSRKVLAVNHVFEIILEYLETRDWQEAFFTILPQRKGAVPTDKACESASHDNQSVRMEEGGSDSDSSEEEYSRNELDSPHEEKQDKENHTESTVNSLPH

hTRMT10A (Homo sapiens, UniProt Q8TBZ6), sequence (Q8TBZ6 whole entry): as the sequence (Q8TBZ6 whole entry D210N) above, with N210D counted along it

Kd (hTRMT10A [1]): 17.7 ± 4 µM | Kd (hTRMT10A [2]): 60.6 ± 10.3 µM
SMILES: C[S+](CC[C@H](N)C(=O)O)C[C@H]1O[C@@H](n2cnc3c(N)ncnc32)[C@H](O)[C@@H]1O (some centres unmarked) [S-adenosyl methionine]
